Consider three molecules from US9986740B2, “Methods of identifying insect-TRPA1 modulators” (BRANDEIS UNIVERSITY, priority 2010, dated 2018).

SMILES strings stand for the structures. Where a chain is given by its changes, count along the chain named. Entries after “also recorded” stand apart in the source; their conditions may differ.

Assay [1] deals with T1, dTRPA1 (Drosophila melanogaster, UniProt Q7Z020).
T1 sequence (Q7Z020 1-1197): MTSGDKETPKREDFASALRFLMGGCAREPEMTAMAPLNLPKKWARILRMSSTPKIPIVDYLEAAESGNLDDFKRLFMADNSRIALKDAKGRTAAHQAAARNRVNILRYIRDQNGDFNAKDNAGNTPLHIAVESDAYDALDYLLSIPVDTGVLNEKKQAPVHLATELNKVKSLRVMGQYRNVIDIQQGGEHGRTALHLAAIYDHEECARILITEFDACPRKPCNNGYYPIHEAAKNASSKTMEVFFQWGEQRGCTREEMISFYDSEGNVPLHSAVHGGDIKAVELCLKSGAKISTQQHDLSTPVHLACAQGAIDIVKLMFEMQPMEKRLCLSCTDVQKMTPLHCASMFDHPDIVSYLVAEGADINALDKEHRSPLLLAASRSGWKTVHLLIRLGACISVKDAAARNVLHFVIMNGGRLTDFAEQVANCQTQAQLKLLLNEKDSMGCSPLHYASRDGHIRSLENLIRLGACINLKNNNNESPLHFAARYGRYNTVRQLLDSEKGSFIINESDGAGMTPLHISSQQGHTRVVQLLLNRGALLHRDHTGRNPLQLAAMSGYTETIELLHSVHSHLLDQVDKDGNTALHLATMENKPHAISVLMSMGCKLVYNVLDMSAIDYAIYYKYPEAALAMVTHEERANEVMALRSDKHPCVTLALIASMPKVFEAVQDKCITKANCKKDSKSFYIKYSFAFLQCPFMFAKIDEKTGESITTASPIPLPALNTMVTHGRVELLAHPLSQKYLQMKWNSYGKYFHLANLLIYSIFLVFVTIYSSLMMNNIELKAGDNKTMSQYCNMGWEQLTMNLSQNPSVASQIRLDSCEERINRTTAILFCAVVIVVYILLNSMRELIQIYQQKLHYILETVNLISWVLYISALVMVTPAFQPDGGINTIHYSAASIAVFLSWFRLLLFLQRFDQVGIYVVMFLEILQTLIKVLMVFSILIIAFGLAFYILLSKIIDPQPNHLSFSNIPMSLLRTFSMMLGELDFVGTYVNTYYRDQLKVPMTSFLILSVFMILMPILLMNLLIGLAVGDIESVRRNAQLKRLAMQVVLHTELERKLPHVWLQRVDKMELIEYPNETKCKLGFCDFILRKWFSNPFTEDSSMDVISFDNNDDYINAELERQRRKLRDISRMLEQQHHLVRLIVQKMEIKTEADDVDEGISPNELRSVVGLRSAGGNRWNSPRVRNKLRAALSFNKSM
In words: Two-electrode voltage clamping on Xenopus laevis oocytes expressing dTRPA1. In kind it is cell-based. Background: Two-electrode voltage clamp holds a large cell at a set potential and records current.

In another assay the test system is uninjected oocytes. As to the kind of experiment: Two-electrode voltage clamping on uninjected oocytes. In kind it is cell-based, Xenopus laevis. The following applies: 3 mM AITC, 1 mM CA, 0.1 mM NMM.
A further assay deals with T2, dTRPA1-2C (Drosophila melanogaster, UniProt Q7Z020, C650S/C670S).
T2 construct: expressed in transfected cells; host or cells: Xenopus laevis oocytes
T2 sequence (Q7Z020 1-1197 C650S/C670S): T1 sequence (Q7Z020 1-1197) with C650S, C670S
As to the kind of experiment: Two-electrode voltage clamping on oocytes expressing mutant dTRPA1-2C. In kind it is cell-based. Conditions: cysteines 650 and 670 mutated to serines; 0.1, 0.5, 1.0 mM AITC. How it is done:
Oocyte and larval physiology were performed largely as described in Hamada, et al., Nature 454, 217-220 (2008) and Pulver, et al., J Neurophysiol 101, 3075-3088 (2009), with additional details provided in below. Chemical sensitivities of wild type and mutant (dTRPA1-2C) channels were assessed by normalizing all currents to currents observed at 1 mM AITC.
Agonist-evoked dTRPA1 currents were recorded as previously described in (Hamada, et al., Nature 454, 217-220 (2008)), with the following modifications. Agonists of interest were added to the oocyte perfusion buffer (96 mM NaCl, 1 mM MgCl2, 4 mM KCl, and 5 mM HEPES, pH 7.6). Voltage was initially held at −60 mV, and a 300-ms voltage ramp (−60 mV to 60 mV) per sec was applied to dTRPA1- or AgTRPA1-expressing oocytes during perfusion of agonist-containing buffer. Typical oocyte resting membrane potentials were between −25 and −60 mV. […] EC50s for wild type dTRPA1 channels were obtained at −60 mV, with AITC provided for 60 sec with 30 sec intervals between increasing concentrations.
Substitutions of cysteine/lysine residues in dTrpA1 were made by swapping a region of wild type cDNA sequence including codons of cysteine or lysine with mutated cassettes. […]

Another assay concerns Drosophila flies. In words: Proboscis extension response (PER) behavioral assay. The format is in vivo, Drosophila melanogaster. The following applies: for Acceptance on first offering: first of five tastant offerings; for Effect on proboscis extension response (PER) / feeding: wild type flies, 350 mM sucrose with 2 mM AITC, 10 mM NMM or 6 mM CA.
Another assay addresses T3, Painless (Drosophila melanogaster, UniProt Q9W0Y6).
T3 sequence (Q9W0Y6 1-913): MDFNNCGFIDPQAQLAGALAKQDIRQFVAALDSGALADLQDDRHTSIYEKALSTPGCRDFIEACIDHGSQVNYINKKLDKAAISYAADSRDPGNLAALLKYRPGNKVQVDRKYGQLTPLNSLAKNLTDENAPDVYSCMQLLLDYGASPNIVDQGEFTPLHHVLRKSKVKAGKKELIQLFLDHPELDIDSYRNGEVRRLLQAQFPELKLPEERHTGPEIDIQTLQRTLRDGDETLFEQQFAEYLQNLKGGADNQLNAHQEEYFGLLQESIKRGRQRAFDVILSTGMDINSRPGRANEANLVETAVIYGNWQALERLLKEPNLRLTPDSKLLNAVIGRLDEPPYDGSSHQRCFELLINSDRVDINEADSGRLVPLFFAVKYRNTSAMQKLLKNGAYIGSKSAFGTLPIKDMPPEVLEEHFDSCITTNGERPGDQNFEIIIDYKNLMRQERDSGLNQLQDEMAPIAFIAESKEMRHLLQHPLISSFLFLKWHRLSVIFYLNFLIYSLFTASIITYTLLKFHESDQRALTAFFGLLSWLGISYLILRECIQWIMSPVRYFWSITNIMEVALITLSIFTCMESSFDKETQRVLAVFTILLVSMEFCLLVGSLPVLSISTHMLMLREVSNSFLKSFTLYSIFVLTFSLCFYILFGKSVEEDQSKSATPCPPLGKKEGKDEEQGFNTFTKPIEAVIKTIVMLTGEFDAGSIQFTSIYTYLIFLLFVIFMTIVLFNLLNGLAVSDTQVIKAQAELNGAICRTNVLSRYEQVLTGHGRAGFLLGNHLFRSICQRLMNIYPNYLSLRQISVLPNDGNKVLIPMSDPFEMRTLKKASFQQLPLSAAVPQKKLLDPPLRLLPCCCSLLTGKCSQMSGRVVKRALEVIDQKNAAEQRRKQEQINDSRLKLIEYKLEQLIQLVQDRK
In words: Larval neuromuscular junction electrophysiology, Painless expressed in motor neurons. Conditions: 500 μM, third instar larval muscles. In kind it is cell-based.

In assay [2] the target is T1, dTRPA1. In words: Larval neuromuscular junction electrophysiology, dTRPA1 expressed in motor neurons. The format is cell-based. Conditions: third instar larval muscles.
A further assay relates to mammalian nociceptors. Conditions: cited from earlier work.
Another assay has as its system nematodes. Conditions: in vivo; cited from earlier work.
The subject of the next assay is flies. The following applies: in vivo; cited from earlier work.

Take `C=CCN=C=S` [AITC, allyl isothiocyanate]: on dTRPA1 [1], the “Activation of dTRPA1” value was “activated”. Moreover, in the assay with uninjected oocytes, the “Response of uninjected oocytes” value is on record as “did not respond”. Moreover, on dTRPA1-2C, the “AITC sensitivity of dTRPA1-2C versus wild type” value was “low sensitivity; also recorded: significantly decreased”. In the assay with Drosophila flies (ingestion permitted), the “Effect on PER in dTrpA1 loss-of-function mutants” value is given as “no reduction” and the “Effect on proboscis extension response (PER) / feeding” value is given as “dramatically inhibited”. Further, the “Acceptance on first offering” value with Drosophila flies is reported as “usually accepted”. Also, the “Effect on PER in painless mutants” value in the assay on Drosophila flies (painless mutant flies, ingestion permitted) was “significantly inhibited”.

For the molecule `O=CC=Cc1ccccc1` [CA, cinnamaldehyde], the “Induction of EJPs in OK371>Painless animals” value on Painless is recorded as “does not induce”. Moreover, on dTRPA1 [2], the “Excitatory junction potentials (EJPs) driven by dTRPA1-expressing motor neurons” value is reported as “cinnamaldehyde-responsive”. The “Response of uninjected oocytes” value in the assay on uninjected oocytes was “did not respond”. Also, in the assay on Drosophila flies (ingestion permitted), the “Effect on PER in dTrpA1 loss-of-function mutants” value is given as “no reduction” and the “Effect on proboscis extension response (PER) / feeding” value is given as “robustly inhibited”. In the assay on Drosophila flies, the “Acceptance on first offering” value is given as “usually accepted”.

Take `COc1cc(CNC(=O)CCCC/C=C/C(C)C)ccc1O` [capsaicin]: in the assay on mammalian nociceptors, the “Effect on mammalian nociceptors” value was “activates”. Also, in the assay with nematodes, the “Acute response in nematodes” value is “no acute response”. In the assay on flies, the “Acute response in flies” value is reported as “no acute response”.
